From patent US10562857B2 (AFASCI, Inc., priority 2015, dated 2020) come the findings set out here.

Structures are written as SMILES. pIC50: −log10 of the molar value. Like-named read-outs stand apart in the source and are kept apart here.

Data set [1] deals with PTZ-induced seizures in mice. Description: Pentylenetetrazol (PTZ)-induced seizures in mice. Format: in vivo, mouse. Particulars: for latency to seizures / fatality latency / fatality rate: 30 mg/kg I.P., PTZ 40 mg/kg I.P.; for fatality latency / fatality rate: 20 min cutoff. On the procedure:
FIG. 10. […] Sixty minutes (min) prior to receiving PTZ (40 mg/kg, I.P.), each mouse was pretreated with either an Example compound, ML218, Z944 or vehicle (2% DMSO in 0.5% HPC). Fatality rate (%) of mice in each group that dies within the 20 minutes observation period—was calculated. Both fatality rate and latency (data not shown) to death were used to evaluate the Example compound's ability to prevent death resulting from PTZ-induced seizures. A cutoff of 20 minutes was set for observational and statistical analysis purposes.
It is well known that antiepileptics, e.g. carbamazepine, lamotrigine and gabapentin are used for the treatment of neuropathic pain (Xie et al., 1995, Caviedes and Herranz, 2001). T-channel overactivation is involved in the generation of seizure activity (Huguenard, 1998, Cribbs et al., 2000, Perez-Reyes et al., 2009, Perez-Reyes, 2010). […] Fatality latency and rate—the percentage (%) of mice in each treatment group that died within a 20 minute cutoff of the observational period, were recorded and calculated. Averaged fatality latency and rate of each treatment group was used to evaluate the Example compound's ability to either prevent or delay the onset of PTZ-induced seizures and death.

Data set [2] concerns the target T1, hERG channel (Homo sapiens, UniProt Q12809).
T1 construct: expressed in transfected cells; host or cells: CHO
Briefly: hERG patch clamp in hERG-expressing CHO cells. Format: cell-based. On the procedure: Sodium and potassium channels in the rodent DRG neurons were recorded and tested as described above. The human ether-a-go-go-related gene (hERG) encodes the rapidly activating potassium channel (IKr) contributing to the repolarization of the cardiac action potential. […] Therefore the representative example compounds in Table 2 were tested against the hERG channel.
Whole-cell patch clamp electrophysiology is employed to test compounds and a positive control compound. Extracellular Ringer's solution contains (in mM): NaCl (130), KCl (5), CaCl2 (1), Glucose (10), HEPES-Na (10) (pH 7.4 adjusted with HCl). Internal pipette solution contains (in mM): KF (120), CaCl2 (1), MgCl2 (1), KCl (10), EGTA (11), HEPES (10), KOH (11) (pH 7.2 adjusted with KOH). The hERG potassium currents are recorded under a holding potential of −80 mV and then depolarized to 40 mV for 2.5 seconds to activate the hERG channel. The peak tail currents are induced by a repolarizing pulse to −50 mV for 4 seconds. A 250 millisecond prepulse to −50 mV is applied for leak subtraction. This voltage-clamp pulse protocol is performed continuously during the experiment every 20 seconds allowing recovery from inactivation. For IC50 determination, each concentration is applied for 2 mins to reach a steady-state inhibitory level prior to the next higher concentrations tested. Each concentration is tested at 2-3 times (n=2-3).
(The hERG channel carries a current that helps repolarise heart muscle cells.)

Data set [3] addresses T2, Cav3.1 (Homo sapiens, UniProt O43497).
T2 construct: expressed in transfected cells; host or cells: HEK-293, tetracycline inducible expression system (Invitrogen)
Briefly: Whole-cell patch clamp of T-type Cav3.1 channel expressed in HEK293 cells. Format: cell-based. The settings on record: Table 2. On the procedure: (§1) Cav3.1, Cav3.2 or Cav3.3 channels were expressed in human embryonic kidney (HEK)-293 cells using a tetracycline inducible expression system (Invitrogen). Cells were maintained in 25 cm^2 tissue culture flasks at 37° C., 5% CO2, and 100% relative humidity in D-MEM/F12 (Dulbecco's Modified Eagle Medium/Nutrient Mixture F-12; Gibco) supplemented with fetal bovine serum (FBS, 10% v/v), sodium pyruvate (0.5 mM, Gibco), penicillin-streptomycin (100 U/mL, 100 μg/mL) and Geneticin® Selective antibiotic (G418; 0.5 mg/mL). Cells were detached from the flask base using a non-enzymatic cell dissociation solution (Cellstripper, Corning), removed and re-seeded on to poly-D-lysine coated glass coverslips in 35 mm dishes.
(§2) Whole-cell voltage clamp recordings were performed on rat or mouse DRG neurons within 2 days after acutely dissociation or cultured HEK293 cells expressing T-type channels (encoded by Cav3.1, Cav3.2 or Cav3.3 channels). All experiments were performed at room temperature (around 21° C.). Whole-cell currents were recorded using a MultiClamp 700B amplifier and analyzed offline with pCLAMP10.4 software (Molecular Devices, LLC, Sunnyvale Calif., USA). […] Since the sodium ions were absent in the external solution, tetrodoctoxin was not needed. Calcium currents were recorded at a holding potential of −100 mV and then depolarized to −30 mV for 100 ms to activate either Cav3.1, Cav3.2, or Cav3.3 expressed in HEK cells. An interpulse interval of 10 seconds allowed the channel recovery from inactivation, and achieved stable current recordings. To record sodium (Na^+) currents in DRG neurons, the external solution used the modified Krebs solution specified above. The internal solution was composed (in mM) of 120 CsF, 10 HEPES, 11 EGTA, 1 CaCl2, 1 MgCl2, 10 TEA-Cl, 4 MgATP and 0.3 MgGTP (pH 7.3-7.4 adjusted with CsOH). […] To record potassium currents in DRG neurons, the external solution used the modified Kreb's solution specified above. The internal solution was composed (in mM) of 65 KCl, 80 KF, 5 KOH, 10 EGTA, 2 MgATP (pH 7.3-7.4 adjusted with KOH). Recording electrodes were fabricated using a P-87 puller (Sutter Instrument Co., Novato, Calif., USA). The tip of resistance was 3-4 MQ in bath and the series resistance was less than 10 MΩ after whole cell configuration. All reagents were purchased from Sigma unless specified otherwise. Test compounds were usually applied via a rapid solution exchange system with 8 fine polyplastic tubings (100 μm, OD) glued in a holder in parallel and located closely to the recorded cells. The current responses were normalized to the control, percent inhibition was calculated and sigmoidal dose-response curves were generated using XLFit (IDBS, Surrey, UK) or Prism (GraphPad Software, La Jolla, Calif., US) to calculate IC50 values and Hill slopes using the following equation Y=Bottom+(Top−Bottom)/(1+10^((Log EC50−X)[…])).
For orientation: The patch-clamp technique gives a direct electrical read-out from membranes.

For data set [4], the target named is T3, Cav3.3 (Homo sapiens, UniProt Q9P0X4).
T3 construct: expressed in transfected cells; host or cells: HEK-293, tetracycline inducible expression system (Invitrogen)
T3 sequence (Q9P0X4 whole entry, species assumed): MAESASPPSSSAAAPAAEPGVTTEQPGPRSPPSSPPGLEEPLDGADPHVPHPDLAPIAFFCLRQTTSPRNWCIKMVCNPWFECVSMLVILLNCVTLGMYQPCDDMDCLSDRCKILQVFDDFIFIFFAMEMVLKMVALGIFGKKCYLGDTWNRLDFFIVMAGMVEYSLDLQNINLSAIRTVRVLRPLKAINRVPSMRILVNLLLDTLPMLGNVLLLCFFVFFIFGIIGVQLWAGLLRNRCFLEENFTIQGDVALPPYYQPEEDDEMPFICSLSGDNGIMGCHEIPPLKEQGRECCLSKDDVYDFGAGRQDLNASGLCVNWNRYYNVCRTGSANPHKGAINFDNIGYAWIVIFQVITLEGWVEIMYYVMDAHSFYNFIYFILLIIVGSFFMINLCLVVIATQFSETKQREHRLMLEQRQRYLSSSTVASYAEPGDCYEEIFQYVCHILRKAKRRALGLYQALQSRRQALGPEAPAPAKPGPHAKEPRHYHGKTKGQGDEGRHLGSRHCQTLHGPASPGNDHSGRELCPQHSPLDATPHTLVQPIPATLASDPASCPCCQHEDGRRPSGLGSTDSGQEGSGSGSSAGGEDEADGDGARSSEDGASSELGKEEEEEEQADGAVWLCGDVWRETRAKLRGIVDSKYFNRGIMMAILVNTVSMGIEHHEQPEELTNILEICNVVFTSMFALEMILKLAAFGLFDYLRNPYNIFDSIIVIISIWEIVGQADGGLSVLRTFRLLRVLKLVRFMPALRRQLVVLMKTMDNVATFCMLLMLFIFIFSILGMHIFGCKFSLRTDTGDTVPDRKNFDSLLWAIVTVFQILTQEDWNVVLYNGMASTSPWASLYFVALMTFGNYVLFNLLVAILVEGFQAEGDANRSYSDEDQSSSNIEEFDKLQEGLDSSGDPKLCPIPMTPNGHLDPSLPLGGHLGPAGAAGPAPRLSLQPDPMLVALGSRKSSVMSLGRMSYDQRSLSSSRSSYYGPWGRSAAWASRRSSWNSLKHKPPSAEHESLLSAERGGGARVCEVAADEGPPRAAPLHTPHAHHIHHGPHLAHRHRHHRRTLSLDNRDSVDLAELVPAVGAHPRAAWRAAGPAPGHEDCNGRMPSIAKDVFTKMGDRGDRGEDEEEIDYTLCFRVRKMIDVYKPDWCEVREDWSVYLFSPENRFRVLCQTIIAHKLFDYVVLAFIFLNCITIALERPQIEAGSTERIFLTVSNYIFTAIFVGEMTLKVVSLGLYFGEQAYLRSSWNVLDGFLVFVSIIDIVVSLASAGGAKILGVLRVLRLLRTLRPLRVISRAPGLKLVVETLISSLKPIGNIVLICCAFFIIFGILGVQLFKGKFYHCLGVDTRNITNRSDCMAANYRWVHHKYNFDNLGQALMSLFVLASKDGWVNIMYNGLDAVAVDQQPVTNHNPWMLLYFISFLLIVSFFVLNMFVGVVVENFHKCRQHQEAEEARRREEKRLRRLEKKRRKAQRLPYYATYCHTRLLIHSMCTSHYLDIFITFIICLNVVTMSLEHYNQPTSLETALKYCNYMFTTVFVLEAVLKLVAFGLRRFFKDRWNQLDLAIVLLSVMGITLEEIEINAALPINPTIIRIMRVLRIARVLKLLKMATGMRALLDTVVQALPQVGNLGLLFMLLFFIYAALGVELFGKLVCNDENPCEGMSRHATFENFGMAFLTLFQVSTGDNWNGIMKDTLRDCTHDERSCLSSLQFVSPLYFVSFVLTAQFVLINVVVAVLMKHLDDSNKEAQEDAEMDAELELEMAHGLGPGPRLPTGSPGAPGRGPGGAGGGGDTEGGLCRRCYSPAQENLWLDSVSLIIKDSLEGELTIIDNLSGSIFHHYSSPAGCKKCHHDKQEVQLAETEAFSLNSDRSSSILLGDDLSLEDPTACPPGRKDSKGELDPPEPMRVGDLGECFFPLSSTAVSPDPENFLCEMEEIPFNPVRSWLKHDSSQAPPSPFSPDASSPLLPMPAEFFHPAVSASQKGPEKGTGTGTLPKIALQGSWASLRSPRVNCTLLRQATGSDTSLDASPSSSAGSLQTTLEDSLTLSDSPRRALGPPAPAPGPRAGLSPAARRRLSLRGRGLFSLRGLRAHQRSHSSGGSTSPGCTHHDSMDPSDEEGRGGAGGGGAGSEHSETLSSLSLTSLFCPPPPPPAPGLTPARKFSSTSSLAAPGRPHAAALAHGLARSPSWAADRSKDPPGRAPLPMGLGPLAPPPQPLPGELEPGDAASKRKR
Briefly: Whole-cell patch clamp of T-type Cav3.3 channel expressed in HEK293 cells. Format: cell-based. Particulars: Table 2. On the procedure: as §1, §2

In general, pIC50 refers to −log10 of the IC50, conventionally taken in molar units.

T1 sequence (Q12809 whole entry): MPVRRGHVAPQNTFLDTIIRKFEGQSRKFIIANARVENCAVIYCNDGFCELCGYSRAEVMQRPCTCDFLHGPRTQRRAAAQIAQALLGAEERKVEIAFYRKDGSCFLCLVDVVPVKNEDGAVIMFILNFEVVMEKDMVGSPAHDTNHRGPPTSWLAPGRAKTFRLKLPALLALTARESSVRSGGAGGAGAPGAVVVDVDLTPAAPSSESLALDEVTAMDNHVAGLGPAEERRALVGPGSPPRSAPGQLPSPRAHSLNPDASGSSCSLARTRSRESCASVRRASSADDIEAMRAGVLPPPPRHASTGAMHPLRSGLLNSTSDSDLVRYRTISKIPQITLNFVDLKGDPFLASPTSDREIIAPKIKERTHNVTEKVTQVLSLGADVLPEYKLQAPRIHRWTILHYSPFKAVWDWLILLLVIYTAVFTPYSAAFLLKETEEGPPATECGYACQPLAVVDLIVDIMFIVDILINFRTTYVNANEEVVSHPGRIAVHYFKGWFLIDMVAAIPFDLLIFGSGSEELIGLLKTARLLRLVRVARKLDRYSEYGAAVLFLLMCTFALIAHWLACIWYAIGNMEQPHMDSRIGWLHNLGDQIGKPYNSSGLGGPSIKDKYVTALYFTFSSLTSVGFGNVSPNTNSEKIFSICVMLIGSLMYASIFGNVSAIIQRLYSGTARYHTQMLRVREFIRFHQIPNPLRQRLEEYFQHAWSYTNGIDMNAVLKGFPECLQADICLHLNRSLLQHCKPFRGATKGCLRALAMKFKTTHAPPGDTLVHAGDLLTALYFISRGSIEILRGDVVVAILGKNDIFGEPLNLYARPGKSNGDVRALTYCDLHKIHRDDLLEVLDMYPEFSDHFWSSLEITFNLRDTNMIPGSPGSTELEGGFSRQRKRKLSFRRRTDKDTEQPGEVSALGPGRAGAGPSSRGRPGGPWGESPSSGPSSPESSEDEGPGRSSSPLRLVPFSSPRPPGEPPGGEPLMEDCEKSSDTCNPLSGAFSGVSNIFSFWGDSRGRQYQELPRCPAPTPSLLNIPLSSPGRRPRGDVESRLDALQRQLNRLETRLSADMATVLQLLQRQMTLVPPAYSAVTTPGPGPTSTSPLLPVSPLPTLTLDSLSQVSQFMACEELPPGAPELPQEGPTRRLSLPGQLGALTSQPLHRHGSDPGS

Consider `CC(C)(C)CCN1CCC2(CC1)CC2NC(=O)c1cc(F)cc(Cl)c1` (stereo not shown) [Example 28, 3-Chloro-N-(6-(3,3-dimethylbutyl)-6-azaspiro[2.5]octan-1-yl)-5-fluorobenzamide], for which the latency to seizures result in data set [1] is reported as “significantly prolonged latencies to seizures”. Further, the fatality latency result in data set [1] is recorded as “prolonged fatality latencies”. Besides, the fatality rate entry in data set [1] was “decreased the fatality rate”. The pIC50 in data set [2] was 5.44; in data set [3], 6.55; in data set [4], 6.68.

With `CC(C)(C)NC(=O)CN1CCC2(CC1)C[C@H]2NC(=O)c1cc(F)cc(Cl)c1` (single isomer, unassigned) [Example 129, (R)—N-(6-(2-(tert-Butylamino)-2-oxoethyl)-6-azaspiro[2.5]octan-1-yl)-3-chloro-5-fluorobenzamide or (S)—N-(6-(2-(tert-Butylamino)-2-oxoethyl)-6-azaspiro[2.5]octan-1-yl)-3-chloro-5-fluorobenzamide], in data set [1], the latency to seizures result was “significantly prolonged latencies to seizures”, the fatality latency entry is “prolonged fatality latencies” and the fatality rate result was “decreased the fatality rate”. In addition, the pIC50 in data set [2] (Table 2, read-out: hERG IC50) is 4.80. In data set [3], this compound showed a pIC50 of 5.98. Also, the pIC50 in data set [4] was 5.79.

In the case of `CC(C)(C)NC(=O)CN1CCC2(CC1)CC2NC(=O)c1cc(F)cc(Cl)c1` (single isomer, unassigned) [Example 128, (S)—N-(6-(2-(tert-Butylamino)-2-oxoethyl)-6-azaspiro[2.5]octan-1-yl)-3-chloro-5-fluorobenzamide or (R)—N-(6-(2-(tert-Butylamino)-2-oxoethyl)-6-azaspiro[2.5]octan-1-yl)-3-chloro-5-fluorobenzamide], the “PTZ-induced Fatality (%)” value in data set [1] (30 mg/kg I.P. 60 min before PTZ 40 mg/kg I.P., death within 20 min) was determined as 16.7%. In data set [1], the latency to seizures result is on record as “significantly prolonged latencies to seizures”, the fatality latency result is “prolonged fatality latencies” and the fatality rate result was “decreased the fatality rate”. This compound had a negative logarithm of the IC50 (pIC50) in data set [2] of 5.15. In data set [3], this compound showed a pIC50 of 7.22. Further, the pIC50 in data set [4] was 6.12.

For the compound `CC(C)(C)NC(=O)CN1CCC2(CC1)C[C@H]2NC(=O)c1cc(C(F)(F)F)cc(C(F)(F)F)c1` (single isomer, unassigned) [Example 144, ((R)—N-(6-(2-(tert-butylamino)-2-oxoethyl)-6-azaspiro[2.5]octan-1-yl)-3,5-bis(trifluoromethyl)benzamide or (S)—N-(6-(2-(tert-butylamino)-2-oxoethyl)-6-azaspiro[2.5]octan-1-yl)-3,5-bis(trifluoromethyl)benzamide], in data set [1], the latency to seizures result was “significantly prolonged latencies to seizures”, the fatality latency entry is “prolonged fatality latencies” and the fatality rate entry is reported as “decreased the fatality rate”. Further, the pIC50 in data set [2] (Table 2, read-out: hERG IC50) was 5.34. Moreover, the pIC50 in data set [3] is 7.40. This compound had a pIC50 in data set [4] of 6.60.

In the case of `CC(C)(C)NC(=O)CN1CCC2(CC1)CC2NC(=O)c1cc(F)cc(Cl)c1` (stereo not shown) [Example 17, N-(6-(2-(tert-Butylamino)-2-oxoethyl)-6-azaspiro[2.5]octan-1-yl)-3-chloro-5-fluorobenzamide], the latency to seizures result in data set [1] is given as “significantly prolonged latencies to seizures”. The fatality latency result in data set [1] is “prolonged fatality latencies”. Also, in data set [1], the fatality rate entry is listed as “decreased the fatality rate”. Further, the pIC50 was 4.97 in data set [2], 6.54 in data set [3] and 6.54 in data set [4].

Turning to `CC(C)(C)NC(=O)CN1CCC2(CC1)C[C@H]2C(=O)Nc1cc(C(F)(F)F)cc(C(F)(F)F)c1` (single isomer, unassigned) [Example 132, (R)—N-(3,5-Bis(trifluoromethyl)phenyl)-6-(2-(tert-butylamino)-2-oxoethyl)-6-azaspiro[2.5]octane-1-carboxamide or (S)—N-(3,5-Bis(trifluoromethyl)phenyl)-6-(2-(tert-butylamino)-2-oxoethyl)-6-azaspiro[2.5]octane-1-carboxamide], in data set [1], the latency to seizures result was “significantly prolonged latencies to seizures”, the fatality latency entry was “prolonged fatality latencies” and the fatality rate entry is reported as “decreased the fatality rate”. In addition, the “hERG (%) inh. at 1 μM” value in data set [2] (1 μM, values in brackets) is listed as “(9%)”. In addition, the pIC50 in data set [3] was 6.92. Also, in data set [4], the pIC50 was 5.12.
